According to publication PMC12670405, “Second-Generation AURKA-Targeting PROTACs: Structural Optimization toward in Vivo Degradation in Neuroblastoma” (Journal of Medicinal Chemistry, 2025):

How the values were obtained:
Test in all cases: KINOMEscan scanMAX
Type in all cases: binding
Details in all cases: read-out: Percent Control
[1] = molecular target: T1, ABL1(E255K)-phosphorylated (Homo sapiens, UniProt P00519, E255K)
T1 construct: purchased Eurofins Discovery (DiscoverX KINOMEscan scanMAX)
Method: (§1) The kinome-wide binding assay was performed by Eurofins Discovery using the scanMAX screening platform. More information can be found on the Eurofins Discovery Web site.

[2] = molecular target: T2, ABL1(H396P)-nonphosphorylated (Homo sapiens, UniProt P00519, H396P)
T2 construct: purchased Eurofins Discovery (DiscoverX KINOMEscan scanMAX)
Method: as §1

[3] = molecular target: T3, ABL1(T315I)-nonphosphorylated (Homo sapiens, UniProt P00519, T315I)
T3 construct: purchased Eurofins Discovery (DiscoverX KINOMEscan scanMAX)
Method: as §1

[4] = molecular target: T4, ABL2 (Homo sapiens, UniProt P42684)
T4 construct: purchased Eurofins Discovery (DiscoverX KINOMEscan scanMAX)
Method: as §1

[5] = molecular target: T5, AKT1 (Homo sapiens, UniProt P31749)
T5 construct: purchased Eurofins Discovery (DiscoverX KINOMEscan scanMAX)
Method: as §1

[6] = molecular target: T6, AMPK-alpha1 (Homo sapiens, UniProt Q13131)
T6 construct: purchased Eurofins Discovery (DiscoverX KINOMEscan scanMAX)
Method: as §1

[7] = molecular target: T7, AURKC (Homo sapiens, UniProt Q9UQB9)
T7 construct: purchased Eurofins Discovery (DiscoverX KINOMEscan scanMAX)
Method: as §1

[8] = molecular target: T8, CAMK1B (Homo sapiens, UniProt Q6P2M8)
T8 construct: purchased Eurofins Discovery (DiscoverX KINOMEscan scanMAX)
Method: as §1

[9] = molecular target: T9, CAMK2B (Homo sapiens, UniProt Q13554)
T9 construct: purchased Eurofins Discovery (DiscoverX KINOMEscan scanMAX)
Method: as §1

[10] = molecular target: T10, CAMKK2 (Homo sapiens, UniProt Q96RR4)
T10 construct: purchased Eurofins Discovery (DiscoverX KINOMEscan scanMAX)
Method: as §1

[11] = molecular target: T11, CDC2L2 (Homo sapiens, UniProt Q9UQ88)
T11 construct: purchased Eurofins Discovery (DiscoverX KINOMEscan scanMAX)
Method: as §1

[12] = molecular target: T12, CLK4 (Homo sapiens, UniProt Q9HAZ1)
T12 construct: purchased Eurofins Discovery (DiscoverX KINOMEscan scanMAX)
Method: as §1

[13] = molecular target: T13, EGFR(G719C) (Homo sapiens, UniProt P00533, G719C)
T13 construct: purchased Eurofins Discovery (DiscoverX KINOMEscan scanMAX)
Method: as §1

[14] = molecular target: T14, ERK3 (Homo sapiens, UniProt Q16659)
T14 construct: purchased Eurofins Discovery (DiscoverX KINOMEscan scanMAX)
Method: as §1

[15] = molecular target: T15, FGFR3(G697C) (Homo sapiens, UniProt P22607, G697C)
T15 construct: purchased Eurofins Discovery (DiscoverX KINOMEscan scanMAX)
Method: as §1

[16] = molecular target: T16, GSK3A (Homo sapiens, UniProt P49840)
T16 construct: purchased Eurofins Discovery (DiscoverX KINOMEscan scanMAX)
Method: as §1

[17] = molecular target: T17, LATS1 (Homo sapiens, UniProt O95835)
T17 construct: purchased Eurofins Discovery (DiscoverX KINOMEscan scanMAX)
T17 sequence (O95835 whole entry): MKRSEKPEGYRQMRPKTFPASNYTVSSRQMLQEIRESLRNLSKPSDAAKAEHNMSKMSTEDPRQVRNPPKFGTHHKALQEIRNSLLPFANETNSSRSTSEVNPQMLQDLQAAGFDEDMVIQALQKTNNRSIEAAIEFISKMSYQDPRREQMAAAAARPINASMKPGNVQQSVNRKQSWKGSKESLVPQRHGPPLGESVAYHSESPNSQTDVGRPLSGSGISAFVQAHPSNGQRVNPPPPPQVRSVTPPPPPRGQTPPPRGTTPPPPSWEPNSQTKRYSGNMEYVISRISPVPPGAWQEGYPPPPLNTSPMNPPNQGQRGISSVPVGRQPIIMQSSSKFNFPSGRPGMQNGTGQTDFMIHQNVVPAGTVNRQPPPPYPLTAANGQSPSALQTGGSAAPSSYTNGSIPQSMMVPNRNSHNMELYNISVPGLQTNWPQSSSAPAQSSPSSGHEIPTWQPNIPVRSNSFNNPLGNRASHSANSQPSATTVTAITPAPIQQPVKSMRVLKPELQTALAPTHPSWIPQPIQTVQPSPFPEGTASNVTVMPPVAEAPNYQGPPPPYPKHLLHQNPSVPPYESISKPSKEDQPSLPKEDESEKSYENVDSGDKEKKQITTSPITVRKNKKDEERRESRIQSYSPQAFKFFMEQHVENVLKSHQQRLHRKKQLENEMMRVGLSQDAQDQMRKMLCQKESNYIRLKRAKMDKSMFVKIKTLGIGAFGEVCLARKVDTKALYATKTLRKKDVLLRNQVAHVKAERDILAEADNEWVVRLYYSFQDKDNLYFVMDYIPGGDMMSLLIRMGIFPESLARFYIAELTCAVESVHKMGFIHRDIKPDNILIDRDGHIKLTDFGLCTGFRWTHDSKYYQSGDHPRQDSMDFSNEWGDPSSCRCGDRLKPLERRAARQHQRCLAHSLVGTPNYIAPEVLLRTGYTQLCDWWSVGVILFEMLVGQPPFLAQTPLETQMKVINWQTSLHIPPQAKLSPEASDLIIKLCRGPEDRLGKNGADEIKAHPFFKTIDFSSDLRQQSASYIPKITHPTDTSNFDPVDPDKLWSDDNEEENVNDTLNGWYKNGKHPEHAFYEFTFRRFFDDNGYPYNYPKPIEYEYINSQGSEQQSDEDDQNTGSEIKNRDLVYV
Method: as §1

[18] = molecular target: T18, LIMK2 (Homo sapiens, UniProt P53671)
T18 construct: purchased Eurofins Discovery (DiscoverX KINOMEscan scanMAX)
Method: as §1

[19] = molecular target: T19, LYN (Homo sapiens, UniProt P07948)
T19 construct: purchased Eurofins Discovery (DiscoverX KINOMEscan scanMAX)
Method: as §1

[20] = molecular target: T20, MAP3K15 (Homo sapiens, UniProt Q6ZN16)
T20 construct: purchased Eurofins Discovery (DiscoverX KINOMEscan scanMAX)
T20 sequence (Q6ZN16 whole entry): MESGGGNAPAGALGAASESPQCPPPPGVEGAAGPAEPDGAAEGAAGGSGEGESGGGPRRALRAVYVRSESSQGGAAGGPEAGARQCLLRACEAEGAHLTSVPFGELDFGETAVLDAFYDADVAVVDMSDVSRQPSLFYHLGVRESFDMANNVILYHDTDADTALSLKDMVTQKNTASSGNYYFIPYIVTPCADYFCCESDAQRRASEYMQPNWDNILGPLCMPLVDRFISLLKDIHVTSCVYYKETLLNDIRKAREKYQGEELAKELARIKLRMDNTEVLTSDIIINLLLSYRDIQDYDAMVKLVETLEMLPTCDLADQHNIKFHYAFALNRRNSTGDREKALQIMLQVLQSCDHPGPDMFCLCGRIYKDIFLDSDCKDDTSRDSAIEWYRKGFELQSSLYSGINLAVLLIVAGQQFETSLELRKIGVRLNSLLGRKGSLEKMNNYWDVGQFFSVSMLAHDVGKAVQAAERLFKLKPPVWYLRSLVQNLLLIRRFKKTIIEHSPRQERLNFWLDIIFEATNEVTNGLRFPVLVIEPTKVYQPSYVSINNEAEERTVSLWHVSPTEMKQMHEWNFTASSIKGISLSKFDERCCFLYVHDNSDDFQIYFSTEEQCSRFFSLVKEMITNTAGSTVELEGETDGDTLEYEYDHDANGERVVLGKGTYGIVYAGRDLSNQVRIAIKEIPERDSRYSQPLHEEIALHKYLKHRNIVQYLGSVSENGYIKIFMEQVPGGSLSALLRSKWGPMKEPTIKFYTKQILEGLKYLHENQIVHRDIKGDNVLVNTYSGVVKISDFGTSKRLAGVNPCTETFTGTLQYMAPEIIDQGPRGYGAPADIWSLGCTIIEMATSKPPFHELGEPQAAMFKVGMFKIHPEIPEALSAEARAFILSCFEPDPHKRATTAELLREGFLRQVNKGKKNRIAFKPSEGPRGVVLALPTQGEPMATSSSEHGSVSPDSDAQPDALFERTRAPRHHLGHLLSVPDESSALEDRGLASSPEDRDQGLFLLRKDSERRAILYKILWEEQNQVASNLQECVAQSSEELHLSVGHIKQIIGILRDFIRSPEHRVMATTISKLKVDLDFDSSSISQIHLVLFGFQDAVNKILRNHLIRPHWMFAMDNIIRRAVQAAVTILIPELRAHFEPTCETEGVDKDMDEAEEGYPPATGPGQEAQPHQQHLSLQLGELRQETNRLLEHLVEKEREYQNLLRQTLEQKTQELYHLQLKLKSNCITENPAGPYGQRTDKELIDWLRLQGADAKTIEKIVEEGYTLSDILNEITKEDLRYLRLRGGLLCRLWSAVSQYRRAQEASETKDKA
Method: as §1

[21] = molecular target: T21, MAP3K2 (Homo sapiens, UniProt Q9Y2U5)
T21 construct: purchased Eurofins Discovery (DiscoverX KINOMEscan scanMAX)
Method: as §1

[22] = molecular target: T22, MAP4K5 (Homo sapiens, UniProt Q9Y4K4)
T22 construct: purchased Eurofins Discovery (DiscoverX KINOMEscan scanMAX)
Method: as §1

[23] = molecular target: T23, NEK3 (Homo sapiens, UniProt P51956)
T23 construct: purchased Eurofins Discovery (DiscoverX KINOMEscan scanMAX)
Method: as §1

[24] = molecular target: T24, NEK4 (Homo sapiens, UniProt P51957)
T24 construct: purchased Eurofins Discovery (DiscoverX KINOMEscan scanMAX)
Method: as §1

[25] = molecular target: T25, NEK6 (Homo sapiens, UniProt Q9HC98)
T25 construct: purchased Eurofins Discovery (DiscoverX KINOMEscan scanMAX)
Method: as §1

[26] = molecular target: T26, PIM1 (Homo sapiens, UniProt P11309)
T26 construct: purchased Eurofins Discovery (DiscoverX KINOMEscan scanMAX)
Method: as §1

[27] = molecular target: T27, PIP5K1C (Homo sapiens, UniProt O60331)
T27 construct: purchased Eurofins Discovery (DiscoverX KINOMEscan scanMAX)
T27 sequence (O60331 whole entry): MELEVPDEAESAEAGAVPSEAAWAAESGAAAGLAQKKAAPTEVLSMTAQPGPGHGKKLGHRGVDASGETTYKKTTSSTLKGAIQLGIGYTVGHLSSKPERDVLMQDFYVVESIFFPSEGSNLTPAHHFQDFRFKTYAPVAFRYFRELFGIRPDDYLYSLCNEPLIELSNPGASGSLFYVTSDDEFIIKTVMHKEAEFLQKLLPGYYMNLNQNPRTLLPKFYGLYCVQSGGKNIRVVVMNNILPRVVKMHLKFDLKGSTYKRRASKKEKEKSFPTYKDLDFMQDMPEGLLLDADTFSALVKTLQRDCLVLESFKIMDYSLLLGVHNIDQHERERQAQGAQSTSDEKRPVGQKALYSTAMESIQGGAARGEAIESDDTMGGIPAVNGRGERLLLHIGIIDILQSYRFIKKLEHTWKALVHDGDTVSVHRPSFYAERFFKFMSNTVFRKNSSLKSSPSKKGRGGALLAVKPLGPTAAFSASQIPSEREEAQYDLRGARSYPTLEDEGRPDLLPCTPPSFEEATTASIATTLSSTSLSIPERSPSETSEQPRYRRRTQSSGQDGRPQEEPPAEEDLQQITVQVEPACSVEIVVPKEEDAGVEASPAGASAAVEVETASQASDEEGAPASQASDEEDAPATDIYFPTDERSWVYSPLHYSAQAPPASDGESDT
Method: as §1

[28] = molecular target: T28, PIP5K2B (Homo sapiens, UniProt P78356)
T28 construct: purchased Eurofins Discovery (DiscoverX KINOMEscan scanMAX)
T28 sequence (P78356 whole entry): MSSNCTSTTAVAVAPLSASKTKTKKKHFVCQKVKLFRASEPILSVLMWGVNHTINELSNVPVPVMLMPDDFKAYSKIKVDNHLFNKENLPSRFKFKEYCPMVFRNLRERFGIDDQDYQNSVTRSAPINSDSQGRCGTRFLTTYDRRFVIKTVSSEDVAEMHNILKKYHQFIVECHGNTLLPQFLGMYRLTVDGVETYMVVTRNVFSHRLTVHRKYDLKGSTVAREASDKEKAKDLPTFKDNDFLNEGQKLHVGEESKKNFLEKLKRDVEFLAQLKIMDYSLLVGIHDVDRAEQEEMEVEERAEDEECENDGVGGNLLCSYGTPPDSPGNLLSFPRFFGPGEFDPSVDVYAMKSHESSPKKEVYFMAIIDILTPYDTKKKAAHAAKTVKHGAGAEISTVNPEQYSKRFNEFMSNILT
Method: as §1

[29] = molecular target: T29, PRKCD (Homo sapiens, UniProt Q05655)
T29 construct: purchased Eurofins Discovery (DiscoverX KINOMEscan scanMAX)
Method: as §1

[30] = molecular target: T30, S6K1 (Homo sapiens, UniProt P23443)
T30 construct: purchased Eurofins Discovery (DiscoverX KINOMEscan scanMAX)
Method: as §1

[31] = molecular target: T31, SRPK1 (Homo sapiens, UniProt Q96SB4)
T31 construct: purchased Eurofins Discovery (DiscoverX KINOMEscan scanMAX)
Method: as §1

[32] = molecular target: T32, STK35 (Homo sapiens, UniProt Q8TDR2)
T32 construct: purchased Eurofins Discovery (DiscoverX KINOMEscan scanMAX)
T32 sequence (Q8TDR2 whole entry): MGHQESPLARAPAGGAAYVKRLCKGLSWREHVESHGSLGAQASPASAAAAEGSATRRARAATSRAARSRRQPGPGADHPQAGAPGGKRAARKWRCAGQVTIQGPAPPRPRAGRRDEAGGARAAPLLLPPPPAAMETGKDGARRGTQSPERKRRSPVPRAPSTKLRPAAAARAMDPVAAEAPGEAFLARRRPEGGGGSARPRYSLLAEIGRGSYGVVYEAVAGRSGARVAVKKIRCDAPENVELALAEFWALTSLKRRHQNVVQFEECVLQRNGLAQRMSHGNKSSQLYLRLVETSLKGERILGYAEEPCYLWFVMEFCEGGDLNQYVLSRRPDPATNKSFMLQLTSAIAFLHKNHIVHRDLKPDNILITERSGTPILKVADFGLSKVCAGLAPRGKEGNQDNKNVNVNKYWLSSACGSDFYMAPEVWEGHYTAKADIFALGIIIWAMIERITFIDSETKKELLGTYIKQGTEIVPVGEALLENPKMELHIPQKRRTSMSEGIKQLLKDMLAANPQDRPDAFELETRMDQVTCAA
Method: as §1

[33] = molecular target: T33, TRKA (Homo sapiens, UniProt P04629)
T33 construct: purchased Eurofins Discovery (DiscoverX KINOMEscan scanMAX)
T33 sequence (P04629 33-796): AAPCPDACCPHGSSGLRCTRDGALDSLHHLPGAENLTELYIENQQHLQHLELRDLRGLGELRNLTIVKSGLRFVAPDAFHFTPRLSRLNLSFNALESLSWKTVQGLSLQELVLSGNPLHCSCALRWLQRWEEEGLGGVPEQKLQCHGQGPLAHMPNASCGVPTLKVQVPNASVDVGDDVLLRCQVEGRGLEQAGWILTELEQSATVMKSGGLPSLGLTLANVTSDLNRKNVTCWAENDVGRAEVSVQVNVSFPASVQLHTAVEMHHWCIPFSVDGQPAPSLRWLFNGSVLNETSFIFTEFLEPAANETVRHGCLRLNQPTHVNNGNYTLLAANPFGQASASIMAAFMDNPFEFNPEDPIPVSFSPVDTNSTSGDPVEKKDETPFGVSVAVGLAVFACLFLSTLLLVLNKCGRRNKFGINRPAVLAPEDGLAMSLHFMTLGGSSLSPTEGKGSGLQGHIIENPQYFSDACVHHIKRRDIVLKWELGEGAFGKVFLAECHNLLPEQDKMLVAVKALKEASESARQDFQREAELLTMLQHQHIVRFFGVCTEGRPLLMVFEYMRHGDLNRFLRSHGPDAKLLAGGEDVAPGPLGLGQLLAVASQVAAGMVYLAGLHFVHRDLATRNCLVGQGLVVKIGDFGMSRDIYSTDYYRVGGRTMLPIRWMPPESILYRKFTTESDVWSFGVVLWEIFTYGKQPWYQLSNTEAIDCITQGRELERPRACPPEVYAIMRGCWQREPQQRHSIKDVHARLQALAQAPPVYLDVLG
Method: as §1

[34] = molecular target: T34, TSSK1B (Homo sapiens, UniProt Q9BXA7)
T34 construct: purchased Eurofins Discovery (DiscoverX KINOMEscan scanMAX)
Method: as §1

Q: For Cc1cc(Nc2ccc(F)c(CC3(C(=O)N4CCC(F)(CN5CCN(c6ccc(N7CCC(=O)NC7=O)cn6)CC5)CC4)CCN(Cc4cccc(Cl)c4F)CC3)n2)n[nH]1 [SK5527], which remaining binding at 0.1 µM ([1]; 100 nM) is on record?
A: 88%

Q: And the remaining binding at 1 µM ([1]; 1000 nM)?
A: 62%

Q: And the remaining binding at 0.1 µM ([2]; 100 nM)?
A: 68%

Q: What about the remaining binding at 1 µM ([2]; 1000 nM) of the same molecule?
A: 19%

Q: What about the remaining binding at 0.1 µM ([3]; 100 nM) of the same molecule?
A: 24%

Q: And the remaining binding at 1 µM ([3]; 1000 nM)?
A: 0%

Q: What about the remaining binding at 0.1 µM ([4]; 100 nM) of the same molecule?
A: 100%

Q: And the remaining binding at 1 µM ([4]; 1000 nM)?
A: 66%

Q: And the remaining binding at 0.1 µM ([5]; 100 nM)?
A: 78%

Q: What about the remaining binding at 1 µM ([5]; 1000 nM) of the same molecule?
A: 100%

Q: And the remaining binding at 0.1 µM ([6]; 100 nM)?
A: 100%

Q: What about the remaining binding at 1 µM ([6]; 1000 nM) of the same molecule?
A: 100%

Q: What about the remaining binding at 0.1 µM ([7]; 100 nM) of the same molecule?
A: 100%

Q: And the remaining binding at 1 µM ([7]; 1000 nM)?
A: 85%

Q: And the remaining binding at 0.1 µM ([8]; 100 nM)?
A: 100%

Q: What about the remaining binding at 1 µM ([8]; 1000 nM) of the same molecule?
A: 100%

Q: And the remaining binding at 0.1 µM ([9]; 100 nM)?
A: 100%

Q: What about the remaining binding at 1 µM ([9]; 1000 nM) of the same molecule?
A: 100%

Q: And the remaining binding at 0.1 µM ([10]; 100 nM)?
A: 100%

Q: And the remaining binding at 1 µM ([10]; 1000 nM)?
A: 100%

Q: And the remaining binding at 0.1 µM ([11]; 100 nM)?
A: 99%

Q: And the remaining binding at 1 µM ([11]; 1000 nM)?
A: 98%

Q: And the remaining binding at 0.1 µM ([12]; 100 nM)?
A: 85%

Q: What about the remaining binding at 1 µM ([12]; 1000 nM) of the same molecule?
A: 100%

Q: What about the remaining binding at 0.1 µM ([13]; 100 nM) of the same molecule?
A: 87%

Q: What about the remaining binding at 1 µM ([13]; 1000 nM) of the same molecule?
A: 94%

Q: What about the remaining binding at 0.1 µM ([14]; 100 nM) of the same molecule?
A: 100%

Q: What about the remaining binding at 1 µM ([14]; 1000 nM) of the same molecule?
A: 94%

Q: And the remaining binding at 0.1 µM ([15]; 100 nM)?
A: 75%

Q: What about the remaining binding at 1 µM ([15]; 1000 nM) of the same molecule?
A: 67%

Q: What about the remaining binding at 0.1 µM ([16]; 100 nM) of the same molecule?
A: 100%

Q: And the remaining binding at 1 µM ([16]; 1000 nM)?
A: 94%

Q: And the remaining binding at 0.1 µM ([17]; 100 nM)?
A: 100%

Q: What about the remaining binding at 1 µM ([17]; 1000 nM) of the same molecule?
A: 100%

Q: What about the remaining binding at 0.1 µM ([18]; 100 nM) of the same molecule?
A: 100%

Q: What about the remaining binding at 1 µM ([18]; 1000 nM) of the same molecule?
A: 98%

Q: And the remaining binding at 0.1 µM ([19]; 100 nM)?
A: 78%

Q: And the remaining binding at 1 µM ([19]; 1000 nM)?
A: 94%

Q: What about the remaining binding at 0.1 µM ([20]; 100 nM) of the same molecule?
A: 100%

Q: What about the remaining binding at 1 µM ([20]; 1000 nM) of the same molecule?
A: 81%

Q: And the remaining binding at 0.1 µM ([21]; 100 nM)?
A: 92%

Q: And the remaining binding at 1 µM ([21]; 1000 nM)?
A: 73%

Q: And the remaining binding at 0.1 µM ([22]; 100 nM)?
A: 100%

Q: And the remaining binding at 1 µM ([22]; 1000 nM)?
A: 100%

Q: And the remaining binding at 0.1 µM ([23]; 100 nM)?
A: 88%

Q: And the remaining binding at 1 µM ([23]; 1000 nM)?
A: 61%

Q: What about the remaining binding at 0.1 µM ([24]; 100 nM) of the same molecule?
A: 72%

Q: And the remaining binding at 1 µM ([24]; 1000 nM)?
A: 65%

Q: And the remaining binding at 0.1 µM ([25]; 100 nM)?
A: 96%

Q: And the remaining binding at 1 µM ([25]; 1000 nM)?
A: 54%

Q: And the remaining binding at 0.1 µM ([26]; 100 nM)?
A: 100%

Q: And the remaining binding at 1 µM ([26]; 1000 nM)?
A: 99%

Q: What about the remaining binding at 0.1 µM ([27]; 100 nM) of the same molecule?
A: 100%

Q: What about the remaining binding at 1 µM ([27]; 1000 nM) of the same molecule?
A: 94%

Q: What about the remaining binding at 0.1 µM ([28]; 100 nM) of the same molecule?
A: 100%

Q: And the remaining binding at 1 µM ([28]; 1000 nM)?
A: 100%

Q: And the remaining binding at 0.1 µM ([29]; 100 nM)?
A: 100%

Q: And the remaining binding at 1 µM ([29]; 1000 nM)?
A: 100%

Q: What about the remaining binding at 0.1 µM ([30]; 100 nM) of the same molecule?
A: 100%

Q: What about the remaining binding at 1 µM ([30]; 1000 nM) of the same molecule?
A: 100%

Q: And the remaining binding at 0.1 µM ([31]; 100 nM)?
A: 93%

Q: What about the remaining binding at 1 µM ([31]; 1000 nM) of the same molecule?
A: 100%

Q: What about the remaining binding at 0.1 µM ([32]; 100 nM) of the same molecule?
A: 99%

Q: And the remaining binding at 1 µM ([32]; 1000 nM)?
A: 80%

Q: And the remaining binding at 0.1 µM ([33]; 100 nM)?
A: 32%

Q: And the remaining binding at 1 µM ([33]; 1000 nM)?
A: 8.3%

Q: And the remaining binding at 0.1 µM ([34]; 100 nM)?
A: 100%

Q: And the remaining binding at 1 µM ([34]; 1000 nM)?
A: 100%
